Tests used:
sugarbeets = experiment: Pre-planting sugar application on sugarbeets, Hickson; format: in vivo, sugarbeet; settings: for Recoverable Sugar Yield / Recoverable Sugar Yield Increase Compared to Check Average / Sugarbeet Yield: ND
Procedure: (§1) The field trials were conducted simultaneously in two different planting locations for each of the crops. One location was near the community of Foxhome in Wilkin County, Minnesota (hereafter referred to as “Foxhome”) while the second location was near the community of Hickson in Cass County, North Dakota (hereafter referred to as “Hickson”). The Foxhome and Hickson locations are on opposite sides of the Red River along the border of Minnesota and North Dakota and separated by a distance exceeding 40 miles. Generally, the Foxhome location has heavier clay loam soil conditions while Hickson has sandy loam soil conditions.
(§2) At each of the Foxhome and Hickson locations, a total of thirty two (32) treatments were conducted for each crop (sugarbeets, soybeans, corn, wheat). Each treatment was replicated four times arranged in a Randomized Complete Block (RCB) Design in the same field. Each replication consisted of a plot measuring twenty five (25) feet in length and eleven (11) feet in width. In selecting the particular seed types for evaluation, popular commercial varieties to the region were utilized. For the row crops (sugarbeets, soybeans, corn) each replication included a width of six (6) rows with twenty two (22) inch row spacing and having a row length of twenty five (25) feet. The wheat was planted in accordance with standard commercial practices. To reduce/eliminate any treatment impacts between adjacent plots for the crops, only the four (4) interior rows of each plot were treated and evaluated for row crops, while for wheat, only the interior 7.33 feet of each plot were treated and evaluated. With the exception of the treatment program applied to the individual plots, which will be discussed below, conventional commercial growing practices for each planting location were otherwise followed during the field trials. While the individual plots at the same location, Hickson or Foxhome, experienced essentially the same growing conditions throughout the season, there were various differences associated with localized precipitation, general growing conditions, soil classification and the like, which contributed to performance differences between the Hickson and Foxhome locations.
(§3) The treatment regimen at each location for each of the tested crops included two (2) untreated treatments (Treatments 31 and 32) in which no sugar was applied and constitute the control elements. […] Six (6) treatments (Treatments 13-18) included the liquid application of high fructose corn syrup (hereafter “HFCS”) at varying rates. Six treatments (Treatments 19-24) included the liquid application of dextrose (hereafter “LIQDEX”) at varying rates. Six (6) treatments (Treatments 25-30) included the application of powdered cellulose (hereafter “POWCEL”) at varying rates. For the sugar applied in a solid form, granulated or powdered, field application was conducted via conventional broadcast spreading. For the sugar applied in a liquid form, a liquid concentrate was mixed and diluted with water in a tank and a conventional sprayer was configured such that the liquid was sprayed so as to have the same sugar equivalent (measured in pounds/per acre) as the sugar in solid form. Regardless of whether the sugar was applied as a solid or liquid, the sugar was applied directly onto the soil before spring tillage, lightly worked into the ground and followed by planting of the crop seed in the treated ground. A summary of application rates for each plot treatments are contained in Table 7 below and were used consistently with each of the crops (sugarbeets, soybeans, corn, wheat).
To test the impact of pre-planting application rates and sugar source on sugarbeets, identical field trials using Crystal® brand ACH 260 sugarbeet seed were conducted at the Foxhome and Hickson locations. Planting of the sugarbeet seed and harvest of the sugarbeets were conducted on as close to the same dates as practical so as to have essentially the same length growing season. […]

soybeans [1] = experiment: Pre-planting sugar application on soybeans, Foxhome; format: in vivo, soybean; settings: for Yield / Yield Increase Compared to Check: MN
Procedure: as §1, §2, §3
(§4) To test the impact of pre-planting application rates and sugar source on soybeans, identical field trials using Syngenta brand soybean seed were conducted at the Foxhome and Hickson locations. Planting of the soybean seed and harvest of the soybeans were conducted on approximately the same dates so as to have essentially the same growing season. […]

soybeans [2] = experiment: Pre-planting sugar application on soybeans, Hickson; format: in vivo, soybean; settings: for Yield / Yield Increase Compared to Check Average: ND
Procedure: as §1, §2, §3, §4

wheat = experiment: Pre-planting sugar application on wheat, Hickson; format: in vivo; settings: for Yield / Yield Increase Compared to Check: ND
Procedure: as §1, §2, §3
as §4, with “wheat,” for “soybeans,”, “Westbred Mayville wheat” for “Syngenta brand soybean”, “wheat” for “soybean”, “wheat” for “soybeans”, “on” for “on approximately”

[3] = tested on: microflora that are present in the soil; experiment: Solvita Soil CO2-Burst test of pre-emergent soil samples, soybean trial in Hickson
Procedure: In an attempt to quantify this boost, soil samples were taken during some of the previously discussed trials. These samples were tested using a standard Solvita Soil CO2-Burst Test Kit to generate measurements associated with CO2 respiration which can be used as an indicator of active soil carbon, soil microbial biomass and the potential for nutrient release beneficial to crop production. Generally, the higher the measured levels of CO2, the more advantageous the soil is for crop production.
The results of the CO2-Burst Testing are summarized in Table 17 below (using the replication designations from Table 7): […]

[4] = six rates (25-250 pounds/Acre) per sugar, thirty in all

OC[C@H]1O[C@@](CO)(O[C@H]2O[C@H](CO)[C@@H](O)[C@H](O)[C@H]2O)[C@@H](O)[C@@H]1O [GS, sucrose]
Recoverable Sugar Yield (sugarbeets; pre-planting 25 pounds/Acre): 9560 Pounds/Acre | Recoverable Sugar Yield Increase Compared to Check Average (sugarbeets; pre-planting 25 pounds/Acre): −2.54% | Sugarbeet Yield (sugarbeets; pre-planting 25 pounds/Acre): 32.73 Tons/Acre | Recoverable Sugar Yield (sugarbeets; pre-planting 50 pounds/Acre): 10509 Pounds/Acre | Recoverable Sugar Yield Increase Compared to Check Average (sugarbeets; pre-planting 50 pounds/Acre): 7.14% | Sugarbeet Yield (sugarbeets; pre-planting 50 pounds/Acre): 35.37 Tons/Acre | Recoverable Sugar Yield (sugarbeets; pre-planting 100 pounds/Acre): 9360 Pounds/Acre | Recoverable Sugar Yield Increase Compared to Check Average (sugarbeets; pre-planting 100 pounds/Acre): −4.58% | Sugarbeet Yield (sugarbeets; pre-planting 100 pounds/Acre): 31.94 Tons/Acre | Recoverable Sugar Yield (sugarbeets; pre-planting 150 pounds/Acre): 9877 Pounds/Acre | Recoverable Sugar Yield Increase Compared to Check Average (sugarbeets; pre-planting 150 pounds/Acre): 0.69% | Sugarbeet Yield (sugarbeets; pre-planting 150 pounds/Acre): 32.34 Tons/Acre | Recoverable Sugar Yield (sugarbeets; pre-planting 200 pounds/Acre): 9426 Pounds/Acre | Recoverable Sugar Yield Increase Compared to Check Average (sugarbeets; pre-planting 200 pounds/Acre): −3.90% | Sugarbeet Yield (sugarbeets; pre-planting 200 pounds/Acre): 31.37 Tons/Acre | Recoverable Sugar Yield (sugarbeets; pre-planting 250 pounds/Acre): 9587 Pounds/Acre | Recoverable Sugar Yield Increase Compared to Check Average (sugarbeets; pre-planting 250 pounds/Acre): −2.26% | Sugarbeet Yield (sugarbeets; pre-planting 250 pounds/Acre): 30.7 Tons/Acre | number of treatments showing negative yield benefits compared to check average (sugarbeets; six rates per sugar): four of the six | Yield (soybeans [1]; pre-planting 25 pounds/Acre): 70.03 Bushels/Acre | Yield Increase Compared to Check (soybeans [1]; pre-planting 25 pounds/Acre): 2.17% | Yield (soybeans [1]; pre-planting 50 pounds/Acre): 70.87 Bushels/Acre | Yield Increase Compared to Check (soybeans [1]; pre-planting 50 pounds/Acre): 3.40% | Yield (soybeans [1]; pre-planting 100 pounds/Acre): 70.78 Bushels/Acre | Yield Increase Compared to Check (soybeans [1]; pre-planting 100 pounds/Acre): 3.27% | Yield (soybeans [1]; pre-planting 150 pounds/Acre): 71.45 Bushels/Acre | Yield Increase Compared to Check (soybeans [1]; pre-planting 150 pounds/Acre): 4.25% | Yield (soybeans [1]; pre-planting 200 pounds/Acre): 67.22 Bushels/Acre | Yield Increase Compared to Check (soybeans [1]; pre-planting 200 pounds/Acre): −1.93% | Yield (soybeans [1]; pre-planting 250 pounds/Acre): 66.99 Bushels/Acre | Yield Increase Compared to Check (soybeans [1]; pre-planting 250 pounds/Acre): −2.26% | number of treatments showing yield improvement compared to check treatment 31 (soybeans [1]; [4]): four of the six | Yield (soybeans [2]; pre-planting 25 pounds/Acre): 62.54 Bushels/Acre | Yield Increase Compared to Check Average (soybeans [2]; pre-planting 25 pounds/Acre): 1.28% | Yield (soybeans [2]; pre-planting 50 pounds/Acre): 63.6 Bushels/Acre | Yield Increase Compared to Check Average (soybeans [2]; pre-planting 50 pounds/Acre): 3.00% | Yield (soybeans [2]; pre-planting 100 pounds/Acre): 62.06 Bushels/Acre | Yield Increase Compared to Check Average (soybeans [2]; pre-planting 100 pounds/Acre): 0.50% | Yield (soybeans [2]; pre-planting 150 pounds/Acre): 64.21 Bushels/Acre | Yield Increase Compared to Check Average (soybeans [2]; pre-planting 150 pounds/Acre): 3.98% | Yield (soybeans [2]; pre-planting 200 pounds/Acre): 62.15 Bushels/Acre | Yield Increase Compared to Check Average (soybeans [2]; pre-planting 200 pounds/Acre): 0.65% | Yield (soybeans [2]; pre-planting 250 pounds/Acre): 61.12 Bushels/Acre | Yield Increase Compared to Check Average (soybeans [2]; pre-planting 250 pounds/Acre): −1.02% | number of treatments showing yield improvement compared to check average (soybeans [2]; [4]): five of the six | Yield (wheat; pre-planting 25 pounds/Acre): 51.82 Bushels/Acre | Yield Increase Compared to Check (wheat; pre-planting 25 pounds/Acre): 5.45% | Yield (wheat; pre-planting 50 pounds/Acre): 52.47 Bushels/Acre | Yield Increase Compared to Check (wheat; pre-planting 50 pounds/Acre): 6.78% | Yield (wheat; pre-planting 100 pounds/Acre): 49.94 Bushels/Acre | Yield Increase Compared to Check (wheat; pre-planting 100 pounds/Acre): 1.63% | Yield (wheat; pre-planting 150 pounds/Acre): 44.54 Bushels/Acre | Yield Increase Compared to Check (wheat; pre-planting 150 pounds/Acre): −9.36% | Yield (wheat; pre-planting 200 pounds/Acre): 50.25 Bushels/Acre | Yield Increase Compared to Check (wheat; pre-planting 200 pounds/Acre): 2.26% | Yield (wheat; pre-planting 250 pounds/Acre): 50.40 Bushels/Acre | Yield Increase Compared to Check (wheat; pre-planting 250 pounds/Acre): 2.56% | number of treatments showing yield improvement compared to check average (wheat; [4]): five of the six | CO2 Burst ppm ([3]; sugar amount 50 pounds/acre): 63 ppm | CO2 Increase as Compared to Check Average ([3]; sugar amount 50 pounds/acre): 38.46% | CO2 Burst ppm ([3]; sugar amount 150 pounds/acre): 75 ppm | CO2 Increase as Compared to Check Average ([3]; sugar amount 150 pounds/acre): 64.84% | CO2 Burst ppm ([3]; sugar amount 250 pounds/acre): 53 ppm | CO2 Increase as Compared to Check Average ([3]; sugar amount 250 pounds/acre): 16.48%

— patent US20160262390A1, “FIELD APPLICATION OF SUGARS TO INCREASE CROP YIELD” (Minn-Dak Farmers Cooperative, priority 2015, published 2016)
